Assay results as given in US6787569B1, “Therapeutic guanidines” (Cambridge NeuroScience, Inc., priority 1994, dated 2004).
Where a name gives a salt, the structure may show the parent alone. Read-outs that look alike come from different tables or passages of the source.

Columns and labels:
[1] = system: audiogenic seizures in DBA/2 mice; assay: In vivo anticonvulsant activity in the DBA/2 mouse model (audiogenic seizures); conditions: 30 minutes prior to auditory stimulus
Method: Compounds were tested for their effectiveness in preventing seizures in DBA/2 mice which have a unique sensitivity to auditory stimulation. Exposure to loud high-frequency sounds can trigger seizure activity in these animals. This sensitivity develops from postnatal day 12 and peaks around day 21 and slowly diminishes as the animals mature. The unusual response to auditory stimulation in this strain of mouse is believed to be due to a combination of early myelination (causing an unusually low excitatory threshold) and delayed development of inhibitory mechanisms. Glutamate, the predominant excitatory neurotransmitter, has been implicated in this response. Blockade of glutamate receptors of the NMDA and AMPA subtypes, prevents audiogenic seizures in these mice. Compounds that block the release of glutamate should similarly act to prevent seizure activity, and may be therapeutic in other neurologic disorders such as stroke, which also involves glutamate-mediated damage.
Mice were injected intraperitoneally with the compound specified in Table V below or with vehicle control, 30 minutes prior to being placed in a bell jar and turning on the auditory stimulus (12 KHz sine wave at 110-120 db). Administered doses are specified in Table V as milligram of compound per kilogram bodyweight of mouse. The auditory stimulus was left on for 60 seconds and mice reactions were timed and recorded.
Percentage inhibition was determined with reference to vehicle controls.

[2] = system: veratridine-induced 3H-glutamate release from brain nerve terminals (voltage-activated presynaptic Na channels); assay: Inhibition of veratridine-induced 3H-glutamate release, rapid superfusion of synaptosomes; format: biochemical, rat; conditions: 50 μM veratridine-induced release, rat brain synaptosomes; for % Inhibition of ^3H-Glu Rel @ 1 μM (*veratridine-induced glutamate release assay): 1 μM compound; for % Inhibition of ^3H-Glu Rel @ 3 μM (*veratridine-induced glutamate release assay): 3 μM compound
[3] = molecular target: Type II neuronal voltage-activated sodium channels (Rattus norvegicus, UniProt P04775); assay: cell-based
Sequence of Type II neuronal voltage-activated sodium channels (P04775 whole entry, the tested form may be a part): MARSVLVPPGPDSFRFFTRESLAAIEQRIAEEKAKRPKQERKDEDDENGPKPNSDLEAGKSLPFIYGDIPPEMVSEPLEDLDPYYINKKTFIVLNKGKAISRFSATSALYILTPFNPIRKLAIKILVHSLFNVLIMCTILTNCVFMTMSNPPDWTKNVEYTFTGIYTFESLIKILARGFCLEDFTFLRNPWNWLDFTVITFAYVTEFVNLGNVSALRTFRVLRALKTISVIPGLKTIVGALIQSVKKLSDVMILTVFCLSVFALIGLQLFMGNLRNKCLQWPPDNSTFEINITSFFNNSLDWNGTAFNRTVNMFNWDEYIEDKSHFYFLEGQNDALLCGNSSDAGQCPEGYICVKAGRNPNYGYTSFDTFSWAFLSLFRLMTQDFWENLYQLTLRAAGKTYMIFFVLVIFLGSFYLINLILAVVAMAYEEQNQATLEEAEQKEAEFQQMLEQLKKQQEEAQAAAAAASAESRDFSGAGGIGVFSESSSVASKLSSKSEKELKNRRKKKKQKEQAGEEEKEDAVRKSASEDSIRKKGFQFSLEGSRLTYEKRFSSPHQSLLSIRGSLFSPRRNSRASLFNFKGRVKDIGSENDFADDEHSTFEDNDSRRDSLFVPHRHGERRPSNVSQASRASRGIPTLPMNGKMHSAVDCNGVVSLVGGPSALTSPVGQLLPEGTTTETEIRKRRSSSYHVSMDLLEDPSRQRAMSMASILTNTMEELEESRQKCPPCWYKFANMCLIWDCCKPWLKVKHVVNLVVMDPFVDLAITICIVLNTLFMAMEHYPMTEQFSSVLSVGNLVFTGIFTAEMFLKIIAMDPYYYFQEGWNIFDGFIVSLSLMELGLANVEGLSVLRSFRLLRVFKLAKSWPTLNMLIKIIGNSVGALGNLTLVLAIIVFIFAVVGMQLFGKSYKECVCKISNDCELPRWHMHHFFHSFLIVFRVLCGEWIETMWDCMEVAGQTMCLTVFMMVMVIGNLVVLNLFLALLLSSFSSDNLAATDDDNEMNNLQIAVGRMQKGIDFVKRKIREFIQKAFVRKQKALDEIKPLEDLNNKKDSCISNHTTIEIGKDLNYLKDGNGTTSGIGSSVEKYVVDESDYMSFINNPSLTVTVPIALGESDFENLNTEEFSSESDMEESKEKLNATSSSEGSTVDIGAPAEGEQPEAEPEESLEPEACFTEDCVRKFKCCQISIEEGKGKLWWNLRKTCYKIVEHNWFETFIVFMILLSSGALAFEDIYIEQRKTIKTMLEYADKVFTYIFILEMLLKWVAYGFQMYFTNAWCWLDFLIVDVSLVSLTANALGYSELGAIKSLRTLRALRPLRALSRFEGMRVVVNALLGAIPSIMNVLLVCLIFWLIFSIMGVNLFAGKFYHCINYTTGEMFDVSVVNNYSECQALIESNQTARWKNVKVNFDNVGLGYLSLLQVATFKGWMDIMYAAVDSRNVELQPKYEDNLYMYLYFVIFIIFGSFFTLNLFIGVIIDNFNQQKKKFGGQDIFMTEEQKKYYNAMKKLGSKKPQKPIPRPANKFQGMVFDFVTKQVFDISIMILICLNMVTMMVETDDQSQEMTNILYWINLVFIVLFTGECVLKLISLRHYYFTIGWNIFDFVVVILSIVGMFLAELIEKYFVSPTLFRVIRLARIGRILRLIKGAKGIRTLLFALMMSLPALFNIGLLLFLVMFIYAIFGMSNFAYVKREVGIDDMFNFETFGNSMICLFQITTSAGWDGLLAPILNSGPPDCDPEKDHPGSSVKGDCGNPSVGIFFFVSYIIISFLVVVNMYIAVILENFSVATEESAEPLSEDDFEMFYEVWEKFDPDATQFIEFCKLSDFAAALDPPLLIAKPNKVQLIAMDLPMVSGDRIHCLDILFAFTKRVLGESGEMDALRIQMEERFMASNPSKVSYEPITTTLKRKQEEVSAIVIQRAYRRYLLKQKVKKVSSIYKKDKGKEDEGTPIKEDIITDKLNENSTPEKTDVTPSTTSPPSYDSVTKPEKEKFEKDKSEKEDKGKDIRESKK

[4] = system: depolarization-induced 3H-glutamate release from brain nerve terminals; assay: Inhibition of 3H-glutamate release, high [K+] depolarization, rapid superfusion of synaptosomes; format: biochemical; conditions: rat brain synaptosomes; for % Inhibition of ^3H-Glu Rel @ 0.3 μM: 0.3 μM compound; for % Inhibition of ^3H-Glu Rel @ 3 μM: 3 μM compound; for % Inhibition of ^3H-Glu Rel @ 1 μM: 1 μM compound
[5] = veratridine (100 μM)-induced, tetrodotoxin-sensitive uptake, CHO cells expressing rat brain Type II Na channels, read-out: IC50, block of ^14C guanidinium uptake

N-(5-Acenaphthyl)-N′-(indolinyl)guanidine.mesylate [Example 29]
Audiogenic Response % Inhib. ([1]; 20 mg/kg intraperitoneally): 42%
Audiogenic Response % Inhib. ([1]; 40 mg/kg intraperitoneally): 81%

CC(C)(C)c1ccc(CN(C(=N)N)c2cccc(I)c2)cc1 (as salt: HCl) [Example 48, N-(3-Iodophenyl)-N-(4-tert-butylbenzyl)guanidine.HCl]
melting point: 271 to 272 °C

CCCCOc1ccc(N(Cc2ccc(C(C)(C)C)cc2)C(=N)N)cc1.Cl [Example 24, N-(4-n-Butoxyphenyl)-N-(4-tert-butylbenzyl)guanidine.HCl]
% Inhibition of ^3H-Glu Rel @ 1 μM (*veratridine-induced glutamate release assay) [2]: 62* %
IC50 [3, 5]: 1800 nM

CC(C)(C)c1ccc(NC(=N)Nc2cccc(COCc3ccccc3)c2)cc1.CS(=O)(=O)O [Example 106, N-3-(Benzyloxymethyl)phenyl-N′-(4-tert-butylphenyl)guanidine.mesylate]
% Inhibition of ^3H-Glu Rel @ 0.3 μM [4]: 48%
Audiogenic Response % Inhib. ([1]; 40 mg/kg intraperitoneally): 93%

CC(C)(C)c1ccc(NC(=N)Nc2ccc(Cl)c(Cl)c2Cl)cc1.Cl [Example 14, N-(4-tert-Butylphenyl)-N′-(2,3,4-trichlorophenyl)guanidine.HCl]
% Inhibition of ^3H-Glu Rel @ 3 μM [4]: 63%
IC50 [3, 5]: 1800 nM

CCC(C)c1ccc(NC(=N)Nc2ccc(C(C)CC)cc2)cc1 (stereo not shown) (as salt: HCl) [Example 4, N,N′-bis(4-sec-Butylphenyl)guanidine.HCl]
melting point: 113 to 115 °C

CCC(C)c1ccc(N2CCCN(c3ccc(C(C)CC)cc3)C2=N)cc1 (stereo not shown) (as salt: HBr) [Example 8, N,N′-Bis-(4-sec-butylphenyl)-2-iminopyrimidazolidine.HBr]
melting point: > 250 °C

CCC(C)c1ccc(N(Cc2ccc(C(C)(C)C)cc2)C(=N)N)cc1 (stereo not shown) (as salt: HCl) [Example 1, N-(4-sec-Butylphenyl)-N-(4-tert-butylbenzyl)guanidine.HCl]
melting point: 177 to 178 °C

N-(4-sec-Butylphenyl)-N-(4-t-butylbenzyl)-N′-pyrrolidinylguanidine.HCl [Example 72]
% Inhibition of ^3H-Glu Rel @ 0.3 μM [4]: 48%
Audiogenic Response % Inhib. ([1]; 20 mg/kg intraperitoneally): 52%
Audiogenic Response % Inhib. ([1]; 40 mg/kg intraperitoneally): 81%

CC(C)(C)c1ccc(CN(C(=N)N)c2ccc3c(c2)Cc2ccccc2-3)cc1 [Example 22, N-(2-Fluorenyl)-N-(4-tert-butylbenzyl)guanidine.HCl]
IC50 [3, 5]: 500 nM

Cl.N=C(NCCCc1ccccc1)Nc1ccc2c3c(cccc13)CC2 [Example 43, N-(5-Acenaphthyl)-N′-(3-phenylpropyl)guanidine.HCl]
% Inhibition of ^3H-Glu Rel @ 3 μM [4]: 60%
% Inhibition of ^3H-Glu Rel @ 1 μM (*veratridine-induced glutamate release assay) [2]: 43* %

CC(C)(C)c1ccc(CN(C(=N)N)c2ccc(C3CCCCC3)cc2)cc1 [Example 21, N-(4-Cyclohexylphenyl)-N-(4-tert-butylbenzyl)guanidine.HCl]
IC50 [3, 5]: 1900 nM

CCC(C)c1ccc(NC(=N)N(C)c2ccc(C(C)CC)cc2)cc1.Cl (stereo not shown) [Example 5, N,N′-bis(4-sec-Butylphenyl)-N-methyl guanidine.HCl]
% Inhibition of ^3H-Glu Rel @ 1 μM (*veratridine-induced glutamate release assay) [2]: 68* %

CC(C)(C)c1ccc(NC(=N)Nc2cccc(OCc3ccccc3)c2)cc1.CS(=O)(=O)O [Example 108, N-(3-Benzyloxy)phenyl-N′-(4-tert-butylphenyl)guanidine.mesylate]
% Inhibition of ^3H-Glu Rel @ 0.3 μM [4]: 49%
Audiogenic Response % Inhib. ([1]; 40 mg/kg intraperitoneally): 80%

CCC(C)c1ccc(N2CCCN(c3ccc(C(C)CC)cc3)C2=N)cc1 (stereo not shown) [Example 8, N,N′-Bis-(4-sec-butylphenyl)-2-iminopyrimidazolidine.HBr]
% Inhibition of ^3H-Glu Rel @ 3 μM [4]: 50%
IC50 [3]: 200 nM
Audiogenic Response % Inhib. ([1]; 2 mg/kg intraperitoneally): 41%
Audiogenic Response % Inhib. ([1]; 4 mg/kg intraperitoneally): 75%

CC(C)(C)c1ccc(CN(C(=N)N)c2ccc(Cl)c3ccccc23)cc1 [Example 49, N-(4-Chloro-1-naphthyl)-N-(4-tert-benzyl)guanidine.HCl]
% Inhibition of ^3H-Glu Rel @ 1 μM (*veratridine-induced glutamate release assay) [2]: 32* %
IC50 [3]: 2200 nM

N=C(Nc1ccc2ccccc2c1)NC1C2CC3CC(C2)CC1C3 (stereo not shown) [Example 16, N-(2-Naphthyl)-N′-(2-adamantyl)guanidine.HCl]
IC50 [3, 5]: 500 nM

CCC(C)c1ccc(N(Cc2ccccc2)C(=N)N)cc1 (stereo not shown) [Example 17, N-(4-sec-Butylphenyl)-N-benzylguanidine]
melting point: 65 to 67 °C

Br.CCCCOc1ccc(NC(=N)Nc2ccc(OCCCC)cc2)cc1 [Example 137, N,N′-Bis(4-butoxyphenyl)guanidine.HBr]
Audiogenic Response % Inhib. ([1]; 20 mg/kg intraperitoneally): 60%
Audiogenic Response % Inhib. ([1]; 40 mg/kg intraperitoneally): 82%

Cl.N=C(Nc1ccc(OCc2ccccc2)cc1)Nc1cccc(OCc2ccccc2)c1 [Example 42, N-(3-Benzyloxyphenyl)-N′-(4-benzyloxyphenyl)guanidine.HCl]
% Inhibition of ^3H-Glu Rel @ 0.3 μM [4]: 54%
% Inhibition of ^3H-Glu Rel @ 1 μM [4]: 90%
% Inhibition of ^3H-Glu Rel @ 3 μM (*veratridine-induced glutamate release assay) [2]: 60* %
IC50 [3, 5]: 700 nM

N=C(Nc1ccc2c(c1)Cc1ccccc1-2)Nc1ccc2c(c1)Cc1ccccc1-2 [Example 12, N,N′-Bis(2-fluorenyl)guanidine.HBr]
IC50 [3, 5]: 1500 nM

CC(C)(C)c1ccc(CN(C(=N)N)c2cccc(I)c2)cc1 [Example 48, N-(3-Iodophenyl)-N-(4-tert-butylbenzyl)guanidine.HCl]
% Inhibition of ^3H-Glu Rel @ 1 μM (*veratridine-induced glutamate release assay) [2]: 23* %
IC50 [3]: 400 nM

CC(C)(C)c1ccc(CN(C(=N)N)c2cccc(OC(F)(F)F)c2)cc1.Cl [Example 27, N-(3-Trifluoromethoxyphenyl)-N-(4-tert-butylbenzyl)guanidine.HCl]
% Inhibition of ^3H-Glu Rel @ 1 μM [4]: 24%
IC50 [3, 5]: 1200 nM

N=C(Nc1ccc(OCc2ccccc2)cc1)Nc1ccc(Oc2ccccc2)cc1 [N-(4-benzyloxyphenyl)-N′-(4-phenoxyphenyl)guanidine]
Audiogenic Response % Inhib. ([1]; 20 mg/kg intraperitoneally): 16%
Audiogenic Response % Inhib. ([1]; 40 mg/kg intraperitoneally): 93%

CCCCc1ccc(NC(=N)Nc2ccc(OCc3ccccc3)cc2)cc1.Cl [Example 104, N-(4-Benzyloxyphenyl)-N′-(4-butylphenyl)guanidine.HCl]
% Inhibition of ^3H-Glu Rel @ 0.3 μM [4]: 76%
Audiogenic Response % Inhib. ([1]; 20 mg/kg intraperitoneally): 40%
Audiogenic Response % Inhib. ([1]; 40 mg/kg intraperitoneally): 90%

CC(C)(C)c1ccc(CN(C(=N)NN2CCOCC2)c2ccc(OCc3ccccc3)cc2)cc1.Cl [Example 79, N-(4-Benzyloxyphenyl)-N-(4-tert-butylbenzyl)-N′-(4-morpholinyl)guanidine.HCl]
% Inhibition of ^3H-Glu Rel @ 0.3 μM [4]: 77%
Audiogenic Response % Inhib. ([1]; 20 mg/kg intraperitoneally): 41%
Audiogenic Response % Inhib. ([1]; 40 mg/kg intraperitoneally): 68%

N=C(N=Cc1cccc2ccccc12)Nc1ccc2c3c(cccc13)CC2 [Example 10, N-(5-Acenaphthyl)-N′-[(1-naphthyl)-methylene]guanidine.CH3SO3H]
% Inhibition of ^3H-Glu Rel @ 1 μM (*veratridine-induced glutamate release assay) [2]: 24* %
% Inhibition of ^3H-Glu Rel @ 3 μM (*veratridine-induced glutamate release assay) [2]: 71* %

CC(CNC(=N)Nc1ccc2c3c(cccc13)CC2)c1ccccc1.Cl (stereo not shown) [Example 44, N-(5-Acenaphthyl)-N′-(2-methyl-2-phenylethyl)guanidine.HCl]
% Inhibition of ^3H-Glu Rel @ 1 μM (*veratridine-induced glutamate release assay) [2]: 43* %
% Inhibition of ^3H-Glu Rel @ 3 μM (*veratridine-induced glutamate release assay) [2]: 71* %

CCCCc1ccc(NC(=N)Nc2ccc(CCCC)cc2)cc1.CS(=O)(=O)O [Example 37, N,N′-Bis(4-n-butylphenyl)guanidine.mesylate]
% Inhibition of ^3H-Glu Rel @ 0.3 μM [4]: 57%
% Inhibition of ^3H-Glu Rel @ 1 μM [4]: 100%
Audiogenic Response % Inhib. ([1]; 25 mg/kg intraperitoneally): 82%
Audiogenic Response % Inhib. ([1]; 40 mg/kg intraperitoneally): 92%

CC(C)c1ccc(CN(C(=N)N)c2ccc(C3CCCCC3)cc2)cc1 [Example 20, N-(4-Cyclohexylphenyl)-N-(4-isopropylbenzyl)guanidine.HCl]
IC50 [3, 5]: 900 nM

CC(C)c1ccc(NC(=N)Nc2ccc3ccccc3c2)cc1 [Example 11, N-(2-Naphthyl)-N′-(4-isopropylphenyl)guanidine.HCl]
IC50 [3, 5]: 900 nM

CCC(C)c1ccc(N(C/C=C/c2ccccc2)C(=N)N)cc1.Cl (stereo not drawn) [Example 23, N-(4-sec-Butylphenyl)-N-(trans-cinnamyl)guanidine.HCl]
% Inhibition of ^3H-Glu Rel @ 3 μM (*veratridine-induced glutamate release assay) [2]: 33* %

CCCCc1ccc(NC(=N)N(C)c2ccc(OCc3ccccc3)cc2)cc1.CS(=O)(=O)O [Example 110, N-(4-Benzyloxyphenyl)-N-methyl-N′-(4-butylphenyl)guanidine.mesylate]
% Inhibition of ^3H-Glu Rel @ 0.3 μM [4]: 77%
Audiogenic Response % Inhib. ([1]; 20 mg/kg intraperitoneally): 42.3%
Audiogenic Response % Inhib. ([1]; 40 mg/kg intraperitoneally): 92.5%

CC(C)(C)c1ccc(CN(C(=N)N)c2ccc3c(c2)CCC3)cc1 [Example 26, N-(5-Indanyl)-N-(4-tert-butylbenzyl)guanidine.HCl]
IC50 [3, 5]: 700 nM

CCC(C)c1ccc(N(Cc2ccc(C(C)(C)C)cc2)C(=N)NN2CCSCC2)cc1.Cl (stereo not shown) [Example 73, N-(4-sec-Butylphenyl)-N-(4-t-butylbenzyl)-N′-(4-thiomorpholinyl)guanidine.HCl]
% Inhibition of ^3H-Glu Rel @ 1 μM [4]: 59%
Audiogenic Response % Inhib. ([1]; 20 mg/kg intraperitoneally): 23%
Audiogenic Response % Inhib. ([1]; 40 mg/kg intraperitoneally): 89%
